Results published in PubChem BioAssay (NCI).
“And” between values parts separate entries of the source, which are not always exact repeats. Identical values can stand only once.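 Values below derive from 48-hour exposures of cells grown in 96-well plates, with endpoints linearly interpolated between the two concentrations bracketing the appropriate inhibition level. The concentration for 50% growth inhibition is given as GI50. At the TGI there is no net growth.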

Experiments:
Assay in all cases: NCI anticancer screen, dose series, 48 h
SF-295 CNS = tested on: SF-295 CNS
SK-MEL-28 melanoma = tested on: SK-MEL-28 melanoma
A549 NSCLC = tested on: A549 NSCLC
SNB-19 CNS = tested on: SNB-19 CNS
PC-3 prostate = tested on: PC-3 prostate
HCT-15 colon = tested on: HCT-15 colon
M14 melanoma = tested on: M14 melanoma
NCI/ADR-RES ovarian = tested on: NCI/ADR-RES ovarian
A498 renal = tested on: A498 renal
HCT-116 colon = tested on: HCT-116 colon
RXF 393 renal = tested on: RXF 393 renal
HOP-62 NSCLC = tested on: HOP-62 NSCLC

| Compound | TGI (SF-295 CNS) [µM] | TGI (SK-MEL-28 melanoma) [µM] | TGI (A549 NSCLC) [µM] | TGI (SNB-19 CNS) [µM] | TGI (PC-3 prostate) [µM] | TGI (HCT-15 colon) | TGI (M14 melanoma) [µM] | TGI (NCI/ADR-RES ovarian) [µM] | TGI (A498 renal) [µM] | TGI (HCT-116 colon) [µM] | TGI (RXF 393 renal) [µM] | TGI (HOP-62 NSCLC) [µM] | GI50 (SF-295 CNS) | GI50 (SK-MEL-28 melanoma) [µM] | GI50 (SNB-19 CNS) [µM] | GI50 (HCT-15 colon) | GI50 (M14 melanoma) [µM] | GI50 (A498 renal) [µM] | GI50 (HCT-116 colon) | GI50 (RXF 393 renal) [µM] |
| --- | --- | --- | --- | --- | --- | --- | --- | --- | --- | --- | --- | --- | --- | --- | --- | --- | --- | --- | --- | --- |
| c1ccc2c(c1)n1c(N3CCCC3)[n+]3ccccc3c1c1c3cccc[n+]3c(N3CCCC3)n21 | > 100 | > 100 | > 100 | > 100 | > 100 | > 100 µM | > 100 | > 100 | > 100 | > 100 | > 100 | – | – | – | – | – | – | – | – | – |
| CC1=CC(=O)c2ccc3c4ccccc4n(C)c3c2C1=O | > 100 | > 100 | > 100 | > 100 | – | > 100 µM | 64.4 | > 100 | > 100 | > 100 | > 100 | > 100 | – | – | – | – | – | – | – | – |
| Cc1nsc2cc(Cl)n(C)c(=O)c12 | – | > 100 | > 100 | > 100 | – | > 100 µM | > 100 | – | > 100 | > 100 | > 100 | > 100 | – | – | – | – | – | – | – | – |
| CCc1cn(C2CC(CO)C(CO)S2)c(=O)[nH]c1=O (centres undefined) | > 100 | > 100 | > 100 | > 100 | > 100 | > 100 µM | > 100 | > 100 | > 100 | > 100 | > 100 | > 100 | – | – | – | – | – | – | – | – |
| COC(=O)/C=C1\C(=O)Nc2ccc(Br)cc21 | 5.07 | 8.43 | 12.3 | 11.4 | 2.82 | 2.81 µM | 6.03 | 4.49 | 11.6 | 2.64 | 3.27 | 4.61 | – | – | – | – | – | – | – | – |
| COc1cccc(-c2nc(N)c(C#N)c3c2CCS(=O)(=O)c2ccc(C)cc2-3)c1 | > 100 | > 100 | > 100 | > 100 | > 100 | > 100 µM | > 100 | > 88 | > 81.8 | > 100 | – | > 100 | – | – | – | – | – | – | – | – |
| COc1cc(CNc2ccc(C)cc2)cc(OC)c1OC | 0.439 | > 100 | > 100 | > 100 | – | 9.02 µM and > 37.2 µM | > 100 | – | > 74.2 | – | – | > 100 | 0.155 µM and 0.333 µM | 0.525 | 0.959 | 0.1 µM and 0.275 µM | 0.124 | > 37.5 | 0.333 µM and 0.816 µM | 0.239 |
| CCOC1OC(CO[Si](C)(C)C(C)(C)C)C(O)CC1n1ccc(=O)[nH]c1=O (centres undefined) | > 100 | > 100 | > 100 | > 100 | > 100 | > 100 µM | > 100 | > 100 | > 100 | 30.7 | > 100 | – | – | – | – | – | – | – | – | – |
| O=C(Cn1c(C(=O)/C=C/c2ccc(Cl)c(Cl)c2)nc2ccccc21)c1ccccc1 | – | > 100 | 59.8 | 86.1 | > 100 | 91.6 µM | 72.2 | 73 | 67.4 | 35.1 | 57.2 | > 100 | – | – | – | – | – | – | – | – |
| C=Cc1c(-c2ccccc2)cnc2[nH]c3ccccc3c12 | > 50 | > 50 | > 50 | > 50 | – | > 50 µM | > 50 | – | > 50 | > 50 | > 50 | > 50 | – | – | – | – | – | – | – | – |
| COc1ccc(-n2c(C)nc3ccc(NC4OC(COC(C)=O)C(OC(C)=O)C(OC(C)=O)C4OC(C)=O)cc3c2=O)cc1 (centres undefined) | > 100 | > 100 | – | > 100 | > 100 | > 100 µM | – | > 100 | > 100 | 46.5 | 87.4 | > 100 | – | – | – | – | – | – | – | – |
| O=C(CC(=O)n1nc(-c2ccccc2)c(N=Nc2ccc([N+](=O)[O-])cc2)c1-c1ccccc1)Nc1ccc(Cl)cc1 | > 100 | 80.8 | 56.3 | 81.6 | – | – | > 100 | – | – | > 100 | 51.3 | 42.7 | – | – | – | – | – | – | – | – |
| CC(C)(C)c1cc(C(C)(C)C)c(SSc2c(C(C)(C)C)cc(C(C)(C)C)c(O)c2O)c(O)c1O | – | 33.8 | 24 | 25.5 | 28.5 | 20.7 µM | 25.2 | 70 | 27.5 | 23.2 | 47.2 | – | – | – | – | – | – | – | – | – |
| CCCCCCCCCCCC(=O)OCC(O)CO (centres undefined) | > 100 | > 100 | > 100 | > 100 | > 100 | > 100 µM | > 100 | > 100 | > 100 | > 100 | – | > 100 | – | – | – | – | – | – | – | – |
| COc1ccc2[nH]c(=O)cc(C)c2c1[N+](=O)[O-] | > 100 | > 100 | > 100 | > 100 | – | > 100 µM | > 100 | – | > 100 | > 100 | – | > 100 | – | – | – | – | – | – | – | – |
| COC(=O)C1=CCC[C@H]2[C@@]1(COC(C)=O)CC[C@@H](C)[C@]2(C)CC(=O)c1ccoc1 | > 50 | – | > 50 | > 50 | > 50 | 49.5 µM | > 50 | > 50 | > 50 | 30.4 | > 50 | – | – | – | – | – | – | – | – | – |
| O=C(O)c1cc(-c2ccc3cc(O)c(O)cc3c2)ccc1O | > 12.5 | > 12.5 | > 12.5 | > 12.5 | > 12.5 | > 12.5 µM | > 12.5 | > 12.5 | > 12.5 | > 12.5 | – | > 12.5 | – | – | – | – | – | – | – | – |
| CC[n+]1c(/C=C/c2cc(C(=O)OC)n3c2sc2ccccc23)sc2ccccc21 | – | – | 38.3 | 44 | – | 34.9 µM | 34.9 | – | – | 37.1 | – | 34.8 | – | – | – | – | – | – | – | – |
| COc1cc2c(c(OC)c1OC)[C@@H]1CCCCC[C@@H]1CCC2=O | > 100 | > 100 | > 100 | > 100 | – | > 100 µM | > 100 | – | > 100 | > 100 | > 100 | > 100 | – | – | – | – | – | – | – | – |
